Experiments:
EGFR = molecular target: T1, EGFR (Homo sapiens, UniProt P00533); assay: EGFR Whole Cell Kinase Assay (ELISA); format: cell-based; settings: NIH3T3 clone C7 over-expressing human EGF receptor
T1 construct: expressed in transfected cells; host or cells: NIH3T3 clone C7 (EGFR/C7)
From the text: (§1) The following examples illustrates the ability of the exemplary compounds to inhibit receptor tyrosine kinases, such as HER2 and/or EGFR. The following target cells were used for cellular kinase assays: NIH3T3 clone C7 (Honegger et al., supra) engineered to over-express human EGF receptor; NIH3T3 cells engineered to over-express a chimeric receptor containing the EGFR extracellular domain and the HER2 intracellular kinase domain; the human mammary carcinoma line BT474 (ATCC HTB2) expressing HER2; and the human glioblastoma line U1242 that expresses PDGFR-beta. Growth assays were carried out using human mammary epithelial SKBR3 (ATCC HTB30) cells (SKBR3 cells over-express HER2), SKOV3 (AT(D(D HTB77) human ovarian cancer cell line (SKOV3 cells also over-express HER2), A431 cells (A431 cells over-express EGFR) MCF7 human breast carcinoma cells, MCF7 cells overexpressing the HER2 kinase (MCF7-HER2), NIH3T3 cells, and NIH3T3 cells overexpressing the HER2 kinase (3T3-HER2.
EGFR Whole Cell Kinase Assay
EGFR kinase activity (EGFR-3T3 assay) in whole cells was measured as described below:
A. Coat ELISA plates (Corning, 96 well, Cat. #25805-96) with 05-101 antibody at 0.5 μg per well in PBS, 150 μl final volume/well, and store overnight at 4.sunburst. C. Coated plates are good for up to 10 days when stored at 4.sunburst. C.
(§2) B. On day of use, remove coating buffer and replace with blocking buffer (5% Carnation Instant NonFat Dry Milk in PBS). Incubate the plate, shaking, at room temperature (about 23.sunburst. C. to 25.sunburst. C.) for 30 minutes. Just prior to use, remove blocking buffer and wash plate 4 times with TBST buffer.
A. EGFR/C7 cell line (Honegger, et al., supra) can be used for this assay.
B. Choose dishes having 80-90% confluence for the experiment. Trypsinize cells and stop reaction by adding 10% CS DMEM medium. Suspend cells in DMEM medium (10% CS DMEM medium) and centrifuge once at 1000 rpm, and once at room temperature for 5 minutes.
(§3) C. Resuspend cells in seeding medium (DMEM, 0.5% bovine serum), and count the cells using trypan blue. Viability above 90% is acceptable. Seed cells in DMEM medium (0.5% bovine serum) at a density of 10,000 cells per well, 100 μl per well, in a 96 well microtiter plate. Incubate seeded cells in 5% CO2 at 37.sunburst. C. for about 40 hours.
(§4) A. Check seeded cells for contamination using an inverted microscope. Dilute drug stock (10 mg/ml in DMSO) 1:10 in DMEM medium, then transfer 5 μl to a test well for a final drug dilution of 1:200 and a final DMSO concentration of […]. Control wells receive DMSO alone. Incubate in 5% CO2 at 37° C. for one hour.
B. Prepare EGF ligand: dilute stock EGF in DMEM so that upon transfer of 10 μl dilute EGF (1:12 dilution), 25 nM final concentration is attained.
C. Prepare fresh HNTG* sufficient for 100 μl per well; and place on ice.
D. After two hours incubation with drug, add prepared EGF ligand to cells, 10 μl per well, to yield a final concentration of 25 nM. Control wells receive DMEM alone. Incubate, shaking, at room temperature, for 5 minutes.
(§5) E. Remove drug, EGF, and DMEM. Wash cells twice with PBS. Transfer HNTG* to cells, 100 μl per well. Place on ice for 5 minutes. Meanwhile, remove blocking buffer from other ELISA plate and wash with TBST as described above.
(§6) F. With a pipette tip securely fitted to a micropipettor, scrape cells from plate and homogenize cell material by repeatedly aspirating and dispensing the HNTG* lysis buffer. Transfer lysate to a coated, blocked, and washed ELISA plate. Incubate shaking at room temperature for one hour.
(§7) G. Remove lysate and wash 4 times with TBST. Transfer freshly diluted anti-Ptyr antibody to ELISA plate at 100 μl per well. Incubate shaking at room temperature for 30 minutes in the presence of the anti-Ptyr antiserum (1:3000 dilution in TBST).
(§8) H. Remove the anti-Ptyr antibody and wash 4 times with TBST. […]

HER2 = HER2 whole cell kinase ELISA (first HER2 column of Table 1); format: cell-based; settings: cell line not given
From the text: as §1
EGFR-HER2 Chimeric Recetor
HER2 kinase activity (EGFR-3T3) in whole cells was measured as described below:
The materials and regeants are identical to these used in example 1, the EGFR whole cell kinase assay.
A. Coat ELISA plates (Corning, 96 well, Cat. #25805-96) with 05-101 antibody at 0.5 µg per well in PBS, 100 μl final volume/well, and store overnight at 4.sunburst. C. Coated plates are good for up to 10 days when stored at 4° C.
as §2, with “replace with 100 μl blocking buffer” for “replace with blocking buffer”, “Carnation Instant Non-Fat Dry Milk” for “Carnation Instant NonFat Dry Milk”
A. An NIH3T3 cell line overexpressing a chimeric receptor containing the EGFR extracellular domain and extracellular HER2 kinase domain can be used for this assay.
B. Choose dishes having 80-90% confluence for the experiment. Trypsinize cells and stop reaction by adding 10% fetal bovine serum. Suspend cells in DMEM medium (10% CS DMEM medium) and centrifuge once at 1500 rpm, at room temperature for 5 minutes.
as §3
as §4, with “l” for “μl”, “[…]” for “test”, “two hours.” for “one hour.”
B. Prepare EGF ligand: dilute stock EGF in DMEM so that upon transfer of 10 μl dilute EGF (1:12 dilution), 100 nM final concentration is attained.
D. After 120 minutes incubation with drug, add prepared […] ligand to cells, 10 μl per well, to a final concentration of 100 nM. Control wells receive DMEM alone. Incubate, shaking, at room temperature, for 5 minutes.
as §5, §6, §7, §8

T1 sequence (P00533 25-1210): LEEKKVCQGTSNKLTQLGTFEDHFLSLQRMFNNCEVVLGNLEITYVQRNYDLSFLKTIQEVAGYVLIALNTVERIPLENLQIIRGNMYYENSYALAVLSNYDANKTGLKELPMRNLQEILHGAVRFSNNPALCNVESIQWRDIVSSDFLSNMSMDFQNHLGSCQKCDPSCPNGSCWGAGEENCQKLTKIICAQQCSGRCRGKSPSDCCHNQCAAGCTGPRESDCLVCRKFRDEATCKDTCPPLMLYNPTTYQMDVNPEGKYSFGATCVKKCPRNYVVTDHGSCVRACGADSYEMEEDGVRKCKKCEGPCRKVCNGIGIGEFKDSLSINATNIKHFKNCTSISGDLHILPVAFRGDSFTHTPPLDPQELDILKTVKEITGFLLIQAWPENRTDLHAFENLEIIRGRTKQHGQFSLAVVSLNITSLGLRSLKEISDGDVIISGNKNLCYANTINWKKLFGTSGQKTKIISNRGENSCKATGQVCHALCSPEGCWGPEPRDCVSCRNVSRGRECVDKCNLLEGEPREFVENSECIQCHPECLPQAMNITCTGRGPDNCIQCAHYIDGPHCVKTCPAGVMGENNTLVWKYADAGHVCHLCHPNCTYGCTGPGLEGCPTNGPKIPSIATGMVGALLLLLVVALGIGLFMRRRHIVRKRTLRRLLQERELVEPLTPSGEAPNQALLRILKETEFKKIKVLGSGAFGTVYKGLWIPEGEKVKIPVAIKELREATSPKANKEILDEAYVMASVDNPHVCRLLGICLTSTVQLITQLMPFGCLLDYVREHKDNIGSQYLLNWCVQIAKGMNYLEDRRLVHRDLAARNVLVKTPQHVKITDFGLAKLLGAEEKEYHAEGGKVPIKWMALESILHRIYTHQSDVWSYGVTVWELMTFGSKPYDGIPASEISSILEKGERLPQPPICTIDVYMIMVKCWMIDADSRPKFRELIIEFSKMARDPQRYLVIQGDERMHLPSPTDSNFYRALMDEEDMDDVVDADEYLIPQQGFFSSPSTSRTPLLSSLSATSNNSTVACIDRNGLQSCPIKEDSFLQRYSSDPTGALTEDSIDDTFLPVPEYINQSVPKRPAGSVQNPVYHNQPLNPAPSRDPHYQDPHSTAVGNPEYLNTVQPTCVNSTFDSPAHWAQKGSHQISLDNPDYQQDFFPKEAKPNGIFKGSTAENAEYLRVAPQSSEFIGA

| Structure (SMILES) | IC50 (EGFR) | IC50 (HER2) |
| --- | --- | --- |
| CCOC(=O)c1cnc2ccc(C(F)(F)F)cc2c1Nc1cccc(Br)c1 [Compound A716, 4-(3-Bromophenylamino)-3-ethoxycarbonyl-6-trifluoromethylquinoline] | > 100 µM |  |
| CCOC(=O)c1cnc2ccc(C(F)(F)F)cc2c1Nc1ccc(OC)c(OC)c1 [Compound A726, 3-Ethoxycarbonyl-4-(3,4-dimethoxyphenylamino)-6-trifluoromethylquinoline] |  | > 100 µM |
| CCOC(=O)c1cnc2c(F)ccc(F)c2c1Sc1ccc(Cl)cc1 [Compound A732, 4-(4-Chlorophenylmercapto)-5,8-difluoro-3-ethoxycarbonylquinoline] | > 100 µM | 50 µM |
| CCOC(=O)c1cnc2ccc(C(F)(F)F)cc2c1Nc1ccccc1C#N [Compound A723, 4-(2-Cyanophenylamino)-3-ethoxycarbonyl-6-trifluoromethylquinoline] |  | > 100 µM |
| CCOC(=O)c1cnc2ccc(C(F)(F)F)cc2c1NCc1ccc(C(F)(F)F)cc1 [Compound A719, 3-Ethoxycarbonyl-4-(4-trifluoromethylbenzylamino)-6-trifluoromethylquinoline] |  | > 100 µM |
| CCOC(=O)c1cnc2ccc(C(F)(F)F)cc2c1Nc1ccc(C(F)(F)F)cc1 [Compound A722, 3-Ethoxycarbonyl-4-(4-trifluoromethylphenylamino)-6-trifluoromethylquinoline] | > 100 µM |  |
| CCOC(=O)c1cnc2ccc(C(F)(F)F)cc2c1NCc1cccc(C(F)(F)F)c1 [Compound A718, 3-Ethoxycarbonyl-4-(3-trifluoromethylbenzylamino)-6-trifluoromethylquinoline] |  | > 100 µM |
| CCOC(=O)c1cnc2ccc(C(F)(F)F)cc2c1Nc1cccc(Cl)c1 [Compound A728, 4-(3-Chlorophenylamino)-3-ethoxycarbonyl-6-trifluoromethylquinoline] |  | > 100 µM |
| CCOC(=O)c1cnc2ccc(C(F)(F)F)cc2c1Nc1ccc(Cl)cc1 [Compound A729, 4-(4-Chlorophenylamino)-3-ethoxycarbonyl-6-trifluoromethylquinoline] |  | > 100 µM |
| CCOC(=O)c1cnc2ccc(C(F)(F)F)cc2c1Nc1ccc(C#N)cc1 [Compound A725, 4-(4-Cyanophenylamino)-3-ethoxycarbonyl-6-trifluoromethylquinoline] |  | > 100 µM |
| CCOC(=O)c1cnc2c(F)cc(F)cc2c1Sc1ccc(Cl)cc1 [Compound A730, 4-(4-Chlorophenylmercapto)-6,8-difluoro-3-ethoxycarbonylquinoline] | > 50 µM | > 100 µM |
| CCOC(=O)c1cnc2c(F)ccc(F)c2c1Sc1cccc(C(F)(F)F)c1 [Compound A713, 3-Ethoxycarbonyl-5,8-difluoro-4-(3-trifluoromethylphenylmercapto)quinoline] | > 100 µM | 7.9 µM |
| CCOC(=O)c1cnc2ccc(C(F)(F)F)cc2c1NCc1ccccc1C(F)(F)F [Compound A717, 3-Ethoxycarbonyl-4-(2-trifluoromethylbenzylamino)-6-trifluoromethylquinoline] |  | > 100 µM |
| CCOC(=O)c1cnc2cc(Cl)c(F)cc2c1Sc1ccc(Cl)cc1 [Compound A731, 7-Chloro-4-(4-chlorophenylmercapto)-6-fluoro-3-ethoxycarbonylquinoline] | > 50 µM | > 100 µM |
| CCOC(=O)c1cnc2ccc(C(F)(F)F)cc2c1Nc1cccc(C(F)(F)F)c1 [Compound A721, 3-Ethoxycarbonyl-4-(3-trifluoromethylphenylamino)-6-trifluoromethylquinoline] | > 100 µM |  |
| CCOC(=O)c1cnc2ccc(C(F)(F)F)cc2c1Nc1ccccc1C(F)(F)F [Compound A720, 3-Ethoxycarbonyl-4-(2-trifluoromethylphenylamino)-6-trifluoromethylquinoline] |  | > 100 µM |
| CCOC(=O)c1cnc2ccc(C(F)(F)F)cc2c1Nc1ccc(Br)cc1 [Compound A727, 4-(4-Bromophenylamino)-3-ethoxycarbonyl-6-trifluoromethylquinoline] |  | > 100 µM |
